Assay results published in patent US10953107B2, “Polypeptide compositions and methods for site-specific targeting of therapeutic agents” (Trustees of Boston University, priority 2018, dated 2021).
Where two headings read alike, the source gives them in different places.

Legend:
[1] = Circular dichroism (CD): specificity and structural assembly of peptides; assay type: physicochemical; settings: circular dichroism (FIG. 2A, FIG. 14A)
From the text: We designed and prepared peptide sequences that form a tetrameric coiled coil,^14,15 but discourage self-interaction (positively charged amino acids in docking, negatively charged in receiving).

[2] = first value of 'x vs. y', second value is an unnamed comparator arm, cited from earlier work; for OS: overall survival; for PFS: progression-free survival
[3] = tested on: MIA PaCa2; assay: ADC cytotoxicity, MTT cell viability assay; assay type: cell-based, human
Method: (§1) Cell viability was assessed by an MTT assay in Panc1 cells and other cell lines at 72 hours post-treatment with increasing concentrations of the ADC and relevant controls. The assay confluence was 20% at the start and up to 60% confluence.
(§2) Cell viability was assessed by an MTT assay in other pancreatic cancer cell lines.
(§3) Cell viability was assessed by an MTT assay in pancreatic cancer cell lines at 72 hours post-treatment with increasing concentrations of the ADC and relevant controls.

[4] = tested on: Capan-1; assay: ADC cytotoxicity, MTT cell viability assay; assay type: cell-based, human
Method: as §1, §2, §3

[5] = tested on: BxPC-3; assay: ADC cytotoxicity, MTT cell viability assay; assay type: cell-based
Method: as §1, §2, §3

[6] = tested on: Panc1 Cells; assay: Cell viability in response to increasing doses of mertansine (FIG. 19); assay type: cell-based, human; settings: cell viability (FIG. 19)
Method: (§4) Cell viability was measured in response to increasing doses of mertansine in Panc1 and MIA PaCa2 cell lines to determine the IC50 compared to other chemotherapeutic agents (gemcitabine and Nab-paclitaxel) (FIG. 19). Panc1 cells are a human pancreatic cancer cell line isolated from a pancreatic carcinoma of ductal cell origin. MIA PaCa-2 cells are another type of pancreatic cancer cell line that was derived from the carcinoma of a patient.

[7] = tested on: MIA PaCa2 Cells; assay: as above; assay type: cell-based, human; settings: cell viability (FIG. 19)
Method: as §4

[8] = tested on: KV2 cells; assay: ADC cytotoxicity in normal cell lines, MTT assay; settings: read-out: IC50 / cytotoxicity
Method: (§5) Cell viability was assessed by an MTT assay in KV2 cells and other normal cell lines at 72 hours post-treatment with increasing concentrations of the ADC and relevant controls.
(§6) Cell viability was assessed by an MTT assay in normal cell lines at 72 hours post-treatment with increasing concentrations of the ADC and relevant controls.

[9] = tested on: BJ fibroblasts; assay: ADC cytotoxicity in normal cell lines, MTT assay
Method: as §5, §6

[10] = tested on: HUVECs; assay: ADC cytotoxicity in normal cell lines, MTT assay; settings: read-out: IC50 / cytotoxicity; HUVEC, additional characterization (FIG. 41)
Method: as §5, §6

[11] = tested on: mIMCD; assay: ADC cytotoxicity in normal cell lines, MTT assay
Method: as §5, §6

[12] = tested on: H6c7; assay: ADC cytotoxicity in normal cell lines, MTT assay; assay type: cell-based; settings: H6c7, additional characterization (FIG. 41)
[13] = tested on: Panc1 Cells; assay: ADC cytotoxicity, MTT cell viability assay; assay type: cell-based, human
[14] = read-out: IC50 / cytotoxicity, MTT (FIG. 32), NS = not significantly different from 100% viability of control
[15] = read-out: IC50 / cytotoxicity, additional characterization (FIG. 41)

MK(LKKIKSV)4VGER [Peptide V/K]
self-assembly / coiled coil formation [1]: do not self-assemble

MK(LEEIVSE)2LEEIVTELEEIVSEVGER (MKLEEIVSELEEIVSELEEIVTELEEIVSEVGER) [Peptide V/E, acidic V/E-type docking peptide]
self-assembly / coiled coil formation [1]: do not self-assemble

C#Cc1cccc(Nc2ncnc3cc(OCCOC)c(OCCOC)cc23)c1 [Erlotinib]
OS [2]: 6.2 vs. 5.9 mo
PFS [2]: 3.8 vs. 3.6 mo

COc1cc2cc(c1Cl)N(C)C(=O)C[C@H](OC(=O)[C@H](C)N(C)C(=O)CCS)[C@]1(C)O[C@H]1[C@H](C)[C@@H]1C[C@@](O)(NC(=O)O1)[C@H](OC)/C=C/C=C(\C)C2 [Mertansine, mertansine]
IC50 ([3]; MIA PaCa2, MTT (FIG. 29-30)): 0.31 nM
IC50 ([3]; MIA PaCa2, additional characterization (FIG. 39)): 0.31 nM
IC50 ([4]; Capan-1, MTT (FIG. 30)): 22.1 nM
IC50 ([4]; Capan-1, additional characterization (FIG. 39)): 22.1 nM
IC50 ([5]; BxPC-3, MTT (FIG. 30)): 18.8 nM
IC50 ([5]; BxPC-3, additional characterization (FIG. 39)): 18.8 nM
IC50 [6]: 1.19 nM
IC50 [7]: 0.268 nM
IC50 ([8]; KV2, additional characterization (FIG. 41)): 289 nM
IC50 ([8]; KV-2, MTT, 72 hours (FIG. 31-32), NS = not significantly different from 100% viability of control): 95.5 nM
IC50 [9, 14]: 16.8 nM
IC50 [9, 15]: 16.8 nM
IC50 [10]: 2.7 nM
IC50 [11, 14]: 3 nM
IC50 [11, 15]: 3 nM
IC50 [12]: 2.4 nM
IC50 ([13]; Panc1, MTT, 72 hours (FIG. 28-30)): 1.98 nM
IC50 ([13]; Panc1, additional characterization (FIG. 39)): 1.98 nM

Nimotuzumab
OS [2]: 8.6 vs. 6.0 mo
PFS [2]: 5.3 vs. 3.6 mo

Cixutumumab
OS [2]: 7.0 vs. 6.7 mo
PFS [2]: 3.6 vs 3.6 mo

Nc1ccn([C@@H]2O[C@H](CO)[C@@H](O)C2(F)F)c(=O)n1 [Gemcitabine]
IC50 ([3]; Homo sapiens, MIA PaCa-2, MIA PaCa2, MTT (FIG. 29-30)): 256 nM
IC50 ([13]; Homo sapiens, PANC-1, Panc1, MTT, 72 hours (FIG. 28)): 700 nM
